Source: paper PMC9603946, “On the Sensitivity of the Virion Envelope to Lipid Peroxidation” (Microbiology Spectrum, 2022)
Marks after values point to notes of the source that are not given here.

Experiments:
[1] = Vero cell viability after 2 h exposure to lipoperoxidators (CellTiter-Glo); details: African green monkey, CC50, Vero
Method: (§1) The cells were washed twice with warm DMEM before a 100 μL lipoperoxidator solution was transferred with a multichannel pipette from the plate containing the drug dilutions in technical triplicates. The cells were incubated with peroxidators for 2 h at 37°C. Then, the medium was removed, and the cells were washed twice with DMEM at 37°C. The plates were cooled down to RT, and the medium was removed. Then, 50 μL phenol red free DMEM and 50 μL CellTiter-glo Luminiscent Cell Viability Assay (Promega, G7571/2/3) were added and mixed in an orbital shaker for 2 min. Afterwards, 80 μL of the mix was transferred onto white 96-well plates and incubated for 10 min at RT for signal stabilization. The luminescence was read in the Glomax Multidetection System (Promega) with an integration time of 0.5 s.
(§2) The means of the technical triplicates were normalized to the means of the vehicle controls, analyzed via nonlinear regression dose responses, and graphed using GraphPad Prism 9.0. Three or four independent biological replicates were performed for each treatment (n = 3 or 4).
(§3) To evaluate the effects of lipid soluble antioxidants, 10 μM vitamin E was loaded onto carrier 1% BSA in the dark for 4.5 h at RT. The cells were washed twice with DMEM at 37°C and preloaded with 100 μL of 10 μM vitamin E in BSA carrier for 3 h at 37°C. The cells were washed twice again before the addition of any lipoperoxidators. Peroxidators were then added to the cells at working concentrations and incubated for 2 h at 37°C. The peroxidation solution was then removed, and the cells were washed twice with DMEM before analyzing viability. To evaluate the effects of a water soluble antioxidant, the cells were treated with 10 μM vitamin C (final concentration) simultaneously with the lipoperoxidators.

Vero cells [2] = assay: as above; details: Vero
Method: as §1, §2, §3

[3] = HFF cell viability after 2 h exposure to lipoperoxidators (CellTiter-Glo); details: human, CC50, HFF
Method: as §1, §2, §3

HFF cells = assay: as above; details: HFF
Method: as §1, §2, §3

HSV-1 = HSV-1 virion infectivity (plaquing efficiency) on Vero cells after virion pretreatment; details: Vero; for EC50: Human alphaherpesvirus 1, Vero
Method: The inocula were removed, and the cells were washed and then incubated at 37°C in 5% CO2 until plaques were visible and well-resolved (about 2 days), at which time they were fixed and stained with crystal violet.
HSV-1 suspensions of 20,000 plaque PFU in 250 μL DMEM were mixed 1:1 with 2-fold serial dilutions of the general peroxidators and were incubated in a water bath for 2 h at 37°C. Next, treated virions were diluted 1:100 before being adsorbed onto cells for 1 h at 37°C. The inocula were removed, and the cells were washed twice with cold DMEM. Infected cells were overlaid with DMEM supplemented with 2% (Vero) or 1% (HFF) methylcellulose and 5% FBS and were incubated at 37°C until plaques were visible and well-resolved, typically in about 2 days. Cell monolayers were fixed and stained with 1% crystal violet in 17% methanol for 18 h at RT. The cells were washed, and the plaques were counted and normalized to those produced by the vehicle treated virions.
To test the effects of lipid soluble antioxidants on virions, 10 μM vitamin E loaded onto 1% carrier BSA in the dark for 4.5 h at RT was incubated with 10^6 HSV-1 virions for 3 h at 37°C. […] The treated virions were diluted 1:100 before infecting cells. […] The mix was incubated for 2 h at 37°C, diluted 1:100, and used to infect cells. The infectivity of an aliquot of treated virions was tested via a plaque assay.

Vero cells [4] = assay: Vero cell lipid peroxidation probed with C11-Bodipy; format: cell-based, African green monkey; details: for EC50: Chlorocebus sabaeus, Bodipy probe
Method: (§4) The effects of peroxidators have been commonly evaluated against purified lipids and liposomes as a proxy, but they have not been evaluated against virions ([50], [53][–][55]). We instead directly evaluated the extent of virion lipid peroxidation.
To evaluate Vero cell lipoperoxidation with C11-Bodipy, 7.5 × 10^3 cells were seeded into each well of 96-well plates and incubated for 18 h at 37°C in 5% CO2 before preloading them with 1 μM C11-Bodipy for 30 min at 37°C. […] Two hours later, the cells were washed twice and lysed with DMSO:isopropanol. Fluorescence was evaluated in a TECAN Infinite M200 Pro at 550 nm excitation and 580 to 630 nm emission with the reading peak at 600 nm.
(§5) To evaluate the effects of a lipid soluble antioxidant, cells or virions were preloaded with vitamin E-BSA for 3 h at 37°C. Vitamin E-BSA containing medium was removed, and the cells were washed twice with DMEM. Liperfluo (20 or 10 μM for cells or virions, respectively) or C11-Bodipy (1 μM for cells or 0.1 mol% for virions) were preloaded into the cells or virions for 30 min at 37°C.
(§6) To evaluate the effects of water soluble antioxidants, liperfluo (20 μM for cells or 10 μM for virions) or C11-Bodipy (1 μM for cells or 0.1 mol% for virions) were preloaded into the cells or virions for 30 min at 37°C. […] Fluorescence was evaluated in a TECAN Infinite M200 Pro at 515 nm excitation and 545 nm emission for liperfluo or at 550 nm excitation and 580 to 630 nm emission for C11-Bodipy.

Vero cells [5] = assay: Vero cell lipid peroxidation probed with liperfluo; format: cell-based, African green monkey; details: Chlorocebus sabaeus, Vero, Liperfluo probe, read-out: CP50 (the source's name)
Method: as §4
To evaluate cell lipid peroxidation using liperfluo, 7.5 × 10^3 Vero cells were seeded into each well of 96-well plates and incubated for 18 h at 37°C in 5% CO2. […] Two hours later, the cells were washed twice, and the fluorescence was evaluated in a TECAN Infinite M200 Pro at 515 nm excitation and 545 nm emission.
as §5, §6

Vero cells [6] = assay: Viability of Vero cells infected with AMVN-pretreated virions
Method: The inocula were removed, the cells were washed, and the viability was immediately evaluated, mimicking the conditions used to test the direct exposure of the cells to the peroxidators.
After 1 h at 37°C, the cells were washed, and cell viability was evaluated as described.

[7] = preloaded with vitamin E (10 μM, BSA carrier)

Compound: CC(C)CC(C)(C#N)N=NC(C)(C#N)CC(C)C (stereo not drawn) [AMVN, 2,2′-azobis(2,4-dimethylvaleronitrile)]
- CC50 at 2 h ([1]; no antioxidant, 2 h at 37°C): 4 mM
- CC50 at 2 h [1, 7]: 4.6 mM
- CC50 at 2 h ([1]; with vitamin C (10 μM)): 3.3 mM
- concentration of maximal inhibition of cell viability (Vero cells [2]): 10000 µM
- PI, CC50 (antioxidant)/CC50 (Vero cells [2]; vitamin C): 0.8
- PI, CC50 (antioxidant)/CC50 (Vero cells [2]; vitamin E): 1.2^d
- CC50 at 2 h ([3]; no antioxidant, 2 h at 37°C): 4.8 mM
- CC50 at 2 h [3, 7]: 4.9 mM
- CC50 at 2 h ([3]; with vitamin C (10 μM)): 4.4 mM
- concentration from which HFF viability was affected (HFF cells): 2000 µM
- PI, CC50 (antioxidant)/CC50 (HFF cells; vitamin C): 0.9
- PI, CC50 (antioxidant)/CC50 (HFF cells; vitamin E): 1.0
- EC50 (HSV-1; 2 h, no antioxidant, virions treated 2 h at 37°C): 0.8 mM
- EC50 (HSV-1; virions preloaded with vitamin E (10 μM, BSA carrier)): 3.8 mM
- EC50 (HSV-1; with vitamin C (10 μM)): 2.6 mM
- concentration of maximal inhibition of virion infectivity (HSV-1): 5 mM
- concentration giving a loss of infectivity of about 30% (HSV-1; 2 h at 37°C): 0.3 mM
- SI, CC50/EC50 (HSV-1; vitamin C): 1.3
- SI, CC50/EC50 (HSV-1; vitamin E): 1.2
- lowest concentration that decreased virion infectivity in the presence of BSA (HSV-1; with BSA): 2.5 mM
- lowest effective concentration on infectivity in the presence of the antioxidants (HSV-1; with antioxidants): 1.5 mM
- lowest concentration affecting cell lipid peroxidation (Vero cells [4]; C11-Bodipy (Fig. 8)): 2.5 mM
- EC50 (Vero cells [4]; no antioxidant, read-out: CP50 (concentration of peroxidant that results in 50% peroxidation in cell lipids)): 2.1 mM
- EC50 (Vero cells [4]; vitamin C, read-out: CP50 (the source's name)): 1.7 mM
- EC50 (Vero cells [4]; vitamin E, read-out: CP50 (the source's name)): 3.5 mM
- EC50 (Vero cells [5]; no antioxidant): 12.6 mM
- EC50 (Vero cells [5]; vitamin C): 11.1 mM
- EC50 (Vero cells [5]; vitamin E): 16.1 mM
- decrease of infected cell viability at the highest AMVN concentration (Vero cells [6]; AMVN carried by virions): 20 to 30%
- concentration from which AMVN carried by virions had minor effects on infected cell viability (Vero cells [6]; pretreated virions diluted 1:100): 2000 µM
